According to the supplement of paper PMC11451515:

What was measured:
[1] = system: NOMO1; assay: AUC of viability dose-response curve (% viability x log10 dose units); higher = less sensitive; conditions: 48 h
Procedure, shortened: (§1)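 Library compounds in DMSO were applied for 48 h at 37°C at 11 threefold doses (47 μM to 0.79 nM) to medium-adapted leukemia cells in 1536-well plates holding 500 or 1000 cells/well. Luminescence from CellTiter-Glo One was normalised plate by plate against DMSO and cell-free wells. Area under the curve came from trapezoidal integration of a log-logistic fit, after scaling curves that rose above full viability and discarding those that failed quality control. The fit had four parameters and used log10 doses.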

[2] = system: P12-Ichikawa; assay: as above; conditions: 48 h
Procedure, shortened: as §1

[3] = system: SEM cells; assay: as above; conditions: 48 h
Procedure, shortened: as §1

[4] = system: NOMO1; assay: cell viability relative to DMSO control; higher = less cytotoxic; conditions: HPLM + 10% dialyzed FBS, 48 h
Procedure, shortened: (§2)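 NOMO1 or SEM cells were plated at 500 cells/well and P12-Ichikawa cells at 1000 cells/well in 1536-well plates (5 μl), after each leukemia line had been adapted for at least four passages in each medium. Pin dosing delivered library compounds in DMSO at 11 threefold concentrations, 47 μM to 0.79 nM. CellTiter-Glo One luminescence was read after 48 h at 37°C. Viability is reported as a per-plate percentage of DMSO wells, with cell-free wells as background.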

[5] = system: SEM cells; assay: as above; conditions: 48 h
Procedure, shortened: as §2

C[C@]\12CC[C@H](O)CC1=C/C[C@@H]3[C@@H]2CC[C@@]\4(C)[C@H]3C\C=C4C5=CN=CC=C5
AUC of viability dose-response curve
Conditions	[1]	[2]	[3]
HPLM + 10% dialyzed FBS	472	468	469
RPMI 5 mM glucose + 10% FBS	472	460	456
RPMI 5 mM glucose + 10% dialyzed FBS	454	459	469

CC(=O)O[C@@]1(CC[C@H]2[C@@H]3\C=C(Cl)/C4=C/C(=O)[C@@H]5C[C@@H]5[C@]4(C)[C@H]3CC[C@]12C)C(C)=O
Conditions	AUC of viability dose-response curve	cell viability [%]
[1], HPLM + 10% dialyzed FBS	364	–
[1], RPMI 5 mM glucose + 10% FBS	322	–
[1], RPMI 5 mM glucose + 10% dialyzed FBS	360	–
[3], HPLM + 10% dialyzed FBS	464	–
[3], RPMI 5 mM glucose + 10% FBS	450	–
[3], RPMI 5 mM glucose + 10% dialyzed FBS	442	–
[4], 0.000781 µM	–	95.1
[4], 0.00234 µM	–	124
[4], 0.00702 µM	–	140
[4], 0.0211 µM	–	137
[4], 0.0632 µM	–	133
[4], 0.19 µM	–	135
[4], 0.569 µM	–	114
[4], 1.71 µM	–	66.4
[4], 5.12 µM	–	36
[4], 15.4 µM	–	38.5
[4], 46.1 µM	–	34.5

cell viability [%], [5]
Conditions	HPLM + 10% dialyzed FBS	RPMI 5 mM glucose + 10% FBS
0.000781 µM	111	115
0.00234 µM	120	115
0.00702 µM	126	126
0.0211 µM	125	119
0.0632 µM	131	118
0.19 µM	130	144
0.569 µM	128	128
1.71 µM	131	116
5.12 µM	136	120
15.4 µM	134	135
46.1 µM	127	135

NC(=O)c1cccnc1
AUC of viability dose-response curve
Conditions	[1]	[2]	[3]
HPLM + 10% dialyzed FBS	438	451	448
RPMI 5 mM glucose + 10% FBS	464	466	449
RPMI 5 mM glucose + 10% dialyzed FBS	409	466	457

CNC(=O)c1c(-c2ccc(F)cc2)oc2cc(N(CCO)[S+](C)(=O)[O-])c(C3CC3)cc12
AUC of viability dose-response curve
Conditions	HPLM + 10% dialyzed FBS	RPMI 5 mM glucose + 10% FBS	RPMI 5 mM glucose + 10% dialyzed FBS
[1]	395	412	425
[2]	382	407	404

cell viability [%], [5]
Conditions	HPLM + 10% dialyzed FBS	RPMI 5 mM glucose + 10% FBS	RPMI 5 mM glucose + 10% dialyzed FBS
0.000781 µM	82.4	44.5	75.4
0.00234 µM	117	71.1	111
0.00702 µM	117	77.3	118
0.0211 µM	110	69.1	106
0.0632 µM	71.9	41.9	65.2
0.19 µM	51.8	26.8	46.8
0.569 µM	67.2	39.9	59.4
1.71 µM	51.2	31.5	48
5.12 µM	25.4	23.8	24.4
15.4 µM	14.3	5.58	10.2
46.1 µM	3.38	1.22	1

O=C(NCC1CCCCN1)c1cc(OCC(F)(F)F)ccc1OCC(F)(F)F (configuration not stated)
AUC of viability dose-response curve
Conditions	[1]	[2]	[3]
HPLM + 10% dialyzed FBS	326	352	457
RPMI 5 mM glucose + 10% FBS	304	353	464
RPMI 5 mM glucose + 10% dialyzed FBS	317	375	468

cell viability [%], [5]
Conditions	HPLM + 10% dialyzed FBS	RPMI 5 mM glucose + 10% FBS
0.000781 µM	104	117
0.00234 µM	130	115
0.00702 µM	115	124
0.0211 µM	128	137
0.0632 µM	130	121
0.19 µM	151	127
0.569 µM	130	131
1.71 µM	140	128
5.12 µM	115	120
15.4 µM	118	121
46.1 µM	43.7	61.9
